# Measurements as given in paper PMC12587545, “Noncytotoxic polymyxin derivatives enhance antibiotic action against multidrug-resistant Gram-negative bacteria” (Antimicrobial Agents and Chemotherapy, 2025).
# Values joined by “and” are separate entries in the source; they are usually repeats but may differ in a detail not shown here. Equal entries are not always repeated.
# Key:
# [1] = test system: E. coli; assay: Checkerboard assay (antibiotic potentiation); type: cell-based, Escherichia coli; settings: for Interpretation: antibiotic + compound 1; for MICantibiotic + compound: antibiotic MIC with 8 µg/mL (5 µM) compound 1; for MICantibiotic: antibiotic alone; for Potentiation: of antibiotic by 8 µg/mL (5 µM) compound 1
# Description: (§1) The interaction between the compounds and the antibiotics was evaluated using the fractional inhibitory concentration (FIC) index. FIC indices of ≤0.5 is synergistic, 0.5 < × ≤ 4 is additive, whereas >4 is antagonistic ([34]).
# (§2) Synergy was measured by the FIC index, which is the summation of the individual FICs of the antibiotic and the compound. The FIC is calculated by dividing the MIC of one agent in the presence of another by the MIC of the agent alone. […] The FBS studies were conducted by following a previously published protocol ([29], [50]). The FBS was inactivated by heating at 56°C for 30 min with constant swirling.
# [2] = test system: E. cloacae; assay: Checkerboard assay (antibiotic potentiation); type: cell-based, Enterobacter cloacae; settings: E. cloacae 121887 (colistin-resistant)
# Description: (§3) The interaction between the compounds and the antibiotics was evaluated using the fractional inhibitory concentration (FIC) index. FIC indices of ≤0.5 is synergistic, 0.5 < × ≤ 4 is additive, whereas >4 is antagonistic ([34]). […] .
# (§4) The bacterial isolates were acquired from ATCC or the Canadian Ward Surveillance (CANWARD) study ([56]). CANWARD isolates were collected from infected patients admitted to participating medical centers across Canada.
# (§5) The antibiotic and compounds were serially diluted 2-fold in CAMHB along the x- and y-axis, respectively, on a 96-well plate that was subsequently incubated with equal volumes of bacterial inoculum overnight at 37°C. Wells containing only media were used as negative controls, and wells containing only bacteria were used as positive controls. Synergy was measured by the FIC index, which is the summation of the individual FICs of the antibiotic and the compound. The FIC is calculated by dividing the MIC of one agent in the presence of another by the MIC of the agent alone. Turbidity was confirmed with a Molecular Devices (United States) EMax Plus microplate reader at a wavelength of 590 nm. The FBS studies were conducted by following a previously published protocol ([29], [50]). The FBS was inactivated by heating at 56°C for 30 min with constant swirling.
# [3] = test system: K. pneumoniae; assay: Checkerboard assay (antibiotic potentiation); type: cell-based, Klebsiella pneumoniae; settings: for Interpretation: antibiotic + compound 1; for MICantibiotic: antibiotic alone; for Potentiation: of antibiotic by 8 µg/mL (5 µM) compound 1
# Description: as §1, §2
# [4] = test system: MDR Gram-negative bacteria clinical isolates; assay: Checkerboard assay, summary over strains; type: cell-based; settings: of all 14 clinical isolates; number (%)
# Description: as §1, §5
# [5] = test system: A. baumannii; assay: Checkerboard assay (antibiotic potentiation); type: cell-based, Acinetobacter baumannii; settings: for MICantibiotic: antibiotic alone
# Description: as §3, §4, §5
# [6] = test system: P. aeruginosa; assay: Checkerboard assay (antibiotic potentiation); type: cell-based, Pseudomonas aeruginosa; settings: for MICantibiotic: antibiotic alone
# Description: as §1, §2
# [7] = E. coli 94393 (colistin-resistant)
# [8] = E. coli 94474 (colistin-resistant)
# [9] = K. pneumoniae 113250 (colistin-resistant)
smiles,measurement,setting,value
CC(C)(O/N=C(\C(=O)N[C@@H]1C(=O)N2C(C(=O)[O-])=C(C[n+]3ccccc3)CS[C@H]12)c1csc(N)n1)C(=O)O [Ceftazidime],Interpretation,[1]; [7],Additive (0.5 < × ≤ 4 is additive)
same,MICantibiotic + compound,[1]; [7],0.5 µg/mL
same,MICantibiotic,[1]; [7],0.5 µg/mL
same,Potentiation,[1]; [7],1 fold
same,Interpretation,[1]; [8],Additive (0.5 < × ≤ 4 is additive)
same,MICantibiotic + compound,[1]; [8],0.25 µg/mL
same,MICantibiotic,[1]; [8],0.5 µg/mL
same,Potentiation,[1]; [8],2 fold
same,Interpretation,[2]; antibiotic + compound 1,Additive (0.5 < × ≤ 4 is additive)
same,MICantibiotic + compound,[2]; antibiotic MIC with 8 µg/mL (5 µM) compound 1,0.25 µg/mL
same,MICantibiotic,[2]; antibiotic alone,0.25 µg/mL
same,Potentiation,[2]; of antibiotic by 8 µg/mL (5 µM) compound 1,1 fold
same,Interpretation,[3]; [9],Additive (0.5 < × ≤ 4 is additive)
same,MICantibiotic + compound,"[3]; K. pneumoniae 113250 (colistin-resistant), antibiotic MIC with 8 µg/mL (5 µM) compound 1",0.5 µg/mL
same,MICantibiotic,[3]; [9],0.5 µg/mL
same,Potentiation,[3]; [9],1 fold
same,Interpretation,[3]; K. pneumoniae 116381,Synergy (FIC indices of ≤0.5 is synergistic)
same,MICantibiotic,[3]; K. pneumoniae 116381,8 µg/mL
same,Potentiation,[3]; K. pneumoniae 116381,64 fold
same,clinical isolates in which the antibiotic was synergized by compound 1,[4],5 (36%) strains
same,Interpretation,"[5]; A. baumannii 92247 (colistin-resistant), antibiotic + compound 1",Additive (0.5 < × ≤ 4 is additive)
same,MICantibiotic + compound,"[5]; A. baumannii 92247 (colistin-resistant), antibiotic MIC with 4 µg/mL (2 µM) compound 1",4 µg/mL
same,MICantibiotic,[5]; A. baumannii 92247 (colistin-resistant),8 µg/mL
same,Potentiation,"[5]; A. baumannii 92247 (colistin-resistant), of antibiotic by 4 µg/mL (2 µM) compound 1",2 fold
same,Interpretation,"[5]; A. baumannii 110193, antibiotic + compound 1",Synergy (FIC indices of ≤0.5 is synergistic)
same,MICantibiotic + compound,"[5]; A. baumannii 110193, antibiotic MIC with 4 µg/mL (2 µM) compound 1",64 µg/mL
same,MICantibiotic,[5]; A. baumannii 110193,256 µg/mL
same,Potentiation,"[5]; A. baumannii 110193, of antibiotic by 4 µg/mL (2 µM) compound 1",4 fold
same,Interpretation,"[5]; A. baumannii AB027, antibiotic + compound 1",Additive (0.5 < × ≤ 4 is additive)
same,MICantibiotic + compound,"[5]; A. baumannii AB027, antibiotic MIC with 4 µg/mL (2 µM) compound 1",1024 µg/mL
same,MICantibiotic,[5]; A. baumannii AB027,2048 µg/mL
same,Potentiation,"[5]; A. baumannii AB027, of antibiotic by 4 µg/mL (2 µM) compound 1",2 fold
same,MICantibiotic + compound,"[5]; A. baumannii AB031, antibiotic MIC with 4 µg/mL (2 µM) compound 1",>64 µg/mL
same,MICantibiotic,[5]; A. baumannii AB031,>64 µg/mL
same,Interpretation,"[5]; A. baumannii ATCC 17978, antibiotic + compound 1",Synergy (FIC indices of ≤0.5 is synergistic)
same,Interpretation,"[5]; A. baumannii ATCC 17978, antibiotic + compound 3",Additive (0.5 < × ≤ 4 is additive)
same,MICantibiotic + compound,"[5]; A. baumannii ATCC 17978, antibiotic MIC with 8 µg/mL (5 µM) compound 3",4 µg/mL
same,MICantibiotic + compound,"[5]; A. baumannii ATCC 17978, antibiotic MIC with ¼ MIC (≤5 µM) of compound 1",1 µg/mL
same,Potentiation,"[5]; A. baumannii ATCC 17978, of antibiotic by 8 µg/mL (5 µM) compound 3",1 fold
same,Potentiation,"[5]; A. baumannii ATCC 17978, of antibiotic by ¼ MIC (≤5 µM) of compound 1",16 fold
same,Interpretation,"[6]; P. aeruginosa 259-96916, antibiotic + compound 1",Synergy (FIC indices of ≤0.5 is synergistic)
same,MICantibiotic + compound,"[6]; P. aeruginosa 259-96916, antibiotic MIC with 8 µg/mL (5 µM) compound 1",16 µg/mL
same,MICantibiotic,[6]; P. aeruginosa 259-96916,512 µg/mL
same,Potentiation,"[6]; P. aeruginosa 259-96916, of antibiotic by 8 µg/mL (5 µM) compound 1",32 fold
same,Interpretation,"[6]; P. aeruginosa 262-101856, antibiotic + compound 1",Synergy (FIC indices of ≤0.5 is synergistic)
same,MICantibiotic + compound,"[6]; P. aeruginosa 262-101856, antibiotic MIC with 8 µg/mL (5 µM) compound 1",4 µg/mL
same,MICantibiotic,[6]; P. aeruginosa 262-101856,16 µg/mL
same,Potentiation,"[6]; P. aeruginosa 262-101856, of antibiotic by 8 µg/mL (5 µM) compound 1",4 fold
same,Interpretation,"[6]; P. aeruginosa 264-105354, antibiotic + compound 1",Synergy (FIC indices of ≤0.5 is synergistic)
same,MICantibiotic + compound,"[6]; P. aeruginosa 264-105354, antibiotic MIC with 8 µg/mL (5 µM) compound 1",16 µg/mL
same,MICantibiotic,[6]; P. aeruginosa 264-105354,128 µg/mL
same,Potentiation,"[6]; P. aeruginosa 264-105354, of antibiotic by 8 µg/mL (5 µM) compound 1",8 fold
same,Interpretation,"[6]; P. aeruginosa 101243 (colistin-resistant), antibiotic + compound 1",Additive (0.5 < × ≤ 4 is additive)
same,MICantibiotic + compound,"[6]; P. aeruginosa 101243 (colistin-resistant), antibiotic MIC with 8 µg/mL (5 µM) compound 1",256 µg/mL
same,MICantibiotic,[6]; P. aeruginosa 101243 (colistin-resistant),512 µg/mL
same,Potentiation,"[6]; P. aeruginosa 101243 (colistin-resistant), of antibiotic by 8 µg/mL (5 µM) compound 1",2 fold
same,Interpretation,"[6]; P. aeruginosa 114228 (colistin-resistant), antibiotic + compound 1",Additive (0.5 < × ≤ 4 is additive)
same,MICantibiotic + compound,"[6]; P. aeruginosa 114228 (colistin-resistant), antibiotic MIC with 8 µg/mL (5 µM) compound 1",8 µg/mL
same,MICantibiotic,[6]; P. aeruginosa 114228 (colistin-resistant),8 µg/mL
same,Potentiation,"[6]; P. aeruginosa 114228 (colistin-resistant), of antibiotic by 8 µg/mL (5 µM) compound 1",1 fold
same,Interpretation,"[6]; P. aeruginosa PAO1, antibiotic + compound 1",Synergy (FIC indices of ≤0.5 is synergistic)
same,Interpretation,"[6]; P. aeruginosa PAO1, antibiotic + compound 3",Additive (0.5 < × ≤ 4 is additive)
same,MICantibiotic + compound,"[6]; P. aeruginosa PAO1, antibiotic MIC with 8 µg/mL (5 µM) compound 1",0.5 µg/mL
same,MICantibiotic + compound,"[6]; P. aeruginosa PAO1, antibiotic MIC with 8 µg/mL (5 µM) compound 3",4 µg/mL
same,MICantibiotic,[6]; P. aeruginosa PAO1,4 µg/mL and 2 µg/mL
same,Potentiation,"[6]; P. aeruginosa PAO1, of antibiotic by 8 µg/mL (5 µM) compound 1",4 fold
same,Potentiation,"[6]; P. aeruginosa PAO1, of antibiotic by 8 µg/mL (5 µM) compound 3",1 fold
